From patent US20180055370A1, “PHOTOACOUSTIC APPARATUS” (CANON KABUSHIKI KAISHA, priority 2015, published 2018)

Assay: Change over time of contrast agent concentration in circulating blood (blood sampling after administration)
Format: in vivo, nude mice
Conditions: threshold value of linearity R^2≧0.8
From the text: FIG. 2 is a graph illustrating contrast agent concentration change information obtained from a plurality of blood samplings of nude mice to which a contrast agent has been administered. The vertical axis represents the concentration of coloring material in blood, and the horizontal axis denotes the time elapsed since administration. The graph depicts specifically the change of the concentration after administration of contrast agent in an amount of 20 nanomoles of coloring material equivalent, to the caudal vein of the nude mice. […]
In a case where the contrast agent is administered into the circulating blood as one shot, the contrast agent concentration in the circulating blood decreases exponentially due to clearance with the passage of time, as illustrated in FIG. 2. […] When no signal is acquired within an appropriate lapse of time, therefore, the contrast agent in the circulating blood may in some instances fail to be quantified successfully. […] On the other hand, once a prolonged period of time has elapsed since administration, the contrast agent concentration in the circulating blood decreases, and becomes readily influenced by the sensitivity and/or measurement variability of the measuring instrument. […]

Compound: CC1(C)C(/C=C/C=C/C=C/C=C2\N(CCCCS(=O)(=O)O)c3ccc4ccccc4c3C2(C)C)=[N+](CCCCS(=O)(=O)[O-])c2ccc3ccccc3c21 [ICG, indocyanine green]
- TIME [hr] (measurement time range over which concentration in blood decreases linearly on a semi-logarithmic axis): 0.08~0.5 hr
